According to patent US20250325529A1, “INHIBITORS OF FATTY ACID BINDING PROTEINS (FABPs), METHODS OF USE AND METHODS OF MAKING” (Celloram, inc., priority 2024, published 2025):

Experiments:
[1] = system: NOD mouse model of autoimmune type 1 diabetes; assay: NOD mouse model of autoimmune type 1 diabetes; format: in vivo, NOD/ShiLtJ mice; settings: female NOD mice
Method: Female NOD/ShiLtJ mice were purchased from Jackson's lab at age of 7 weeks. Mice were housed in a temperature-controlled facility (23° C., 12-h light/dark cycle). Weekly non-fasting blood glucose concentrations were measured in the morning by tail vein prick starting at 8 weeks of age by using a blood glucose test meter (OTUltra2 system, Lifescam, USA) and strips according to manufacturer's instruction. Any reading of blood glucose higher than 200 mg/dL was confirmed by another test 24 hours later. Diabetes was diagnosed by 2 consensus positive blood glucose tests higher than 200 mg/dL. At 13 weeks of age, mice were divided into 3 treatments groups (n=15/group) as followed: 1) control group, treated with vehicle (0.5% methyl cellulose, 1% Tween 80); 2) PD152 treated group (40 mg/Kg in vehicle); 3) anti-CD3 treated group (5 μg/mouse, in PBS). Groups 1 and 2 were treated by gavage 5 days a week throughout the duration of the experiment. Group 3 was treated by IV injection for only 5 consecutive days. Mice were sacrificed at the age of 27 weeks.
NOD mouse model of autoimmune type 1 diabetes was used to test the efficacy of FABP4/5 inhibitor PD152 on spontaneous development of the disease. […] Blood glucose levels were measured weekly for monitoring the incidence of diabetes until termination at 27 weeks of age. […]

[2] = system: Salmonella typhimurium tester strains TA98, TA100, TA1535, TA1537 and Escherichia coli tester strain WP2 uvrA (pKM101); assay: Ames test, overall conclusion for the tested strains; format: cell-based; settings: presence and absence of S9
Method: (§1) PD152 (compound 2) was tested for genotoxic and cytotoxic side effects by Ames test. The Ames test is a Bacterial Reverse Mutation Test of mutagenicity that utilizes Salmonella typhimurium tester strains TA98, TA100, TA1535, TA1537 and Escherichia coli tester strain WP2 uvrA (pKM101), both in the presence and absence of S9.
(§2) The compound PD152 was tested at 10 concentrations (0.032-1000 μg/plate) in the presence of, or absence of, the hepatic enzyme S9.
The aniline FABP4/5 inhibitor compound, 2-((2-((2,4-dichloro-5-isopropoxyphenyl)amino)-2-oxoethyl)thio)-2-methylpropanoic acid (compound “B104” as disclosed in WO2023043803A1) also was tested for genotoxic and cytotoxic side effects by Ames test. B104 was tested using the Salmonella typhimurium tester stains TA98, TA100, TA1535, and TA1537, both in the presence and absence of the hepatic enzyme S9, at 5 concentrations (1.5-64 μg/plate).

[3] = system: Escherichia coli tester strain WP2 uvrA (pKM101); assay: Ames test (Bacterial Reverse Mutation Test), E. coli; format: cell-based
Method: as §1, §2

[4] = system: Salmonella typhimurium tester strain TA1537; assay: Ames test (Bacterial Reverse Mutation Test), TA1537; format: cell-based
Method: as §1, §2
The aniline FABP4/5 inhibitor compound, 2-((2-((2,4-dichloro-5-isopropoxyphenyl)amino)-2-oxoethyl)thio)-2-methylpropanoic acid (compound “B104” as disclosed in WO2023043803A1) also was tested for genotoxic and cytotoxic side effects by Ames test. […]

[5] = presence of S9, 0.0312 μg/plate
[6] = TA1537, absence of S9, 0.0312 μg/plate
[7] = TA1537, absence of S9, 0.1 μg/plate
[8] = TA1537, absence of S9, 0.316 μg/plate
[9] = TA1537, absence of S9, 1 μg/plate
[10] = TA1537, absence of S9, 3.16 μg/plate
[11] = TA1537, absence of S9, 10 μg/plate
[12] = TA1537, absence of S9, 31.6 μg/plate
[13] = TA1537, absence of S9, 100 μg/plate
[14] = TA1537, absence of S9, 316 μg/plate
[15] = TA1537, absence of S9, 1000 μg/plate
[16] = TA1537, presence of S9, 0.0312 μg/plate
[17] = TA1537, presence of S9, 0.1 μg/plate
[18] = TA1537, presence of S9, 0.316 μg/plate
[19] = TA1537, presence of S9, 1 μg/plate
[20] = TA1537, presence of S9, 3.16 μg/plate
[21] = TA1537, presence of S9, 10 μg/plate
[22] = TA1537, presence of S9, 31.6 μg/plate
[23] = TA1537, presence of S9, 100 μg/plate
[24] = TA1537, presence of S9, 316 μg/plate
[25] = TA1537, presence of S9, 1000 μg/plate

CC(C)Oc1nc(NC(=O)CSCC(=O)O)c(Cl)cc1Cl [PD152, 2-((2-((3,5-dichloro-6-isopropoxypyridin-2-yl)amino)-2-oxoethyl)thio)acetic acid]
Diabetes incidence ([1]; 40 mg/Kg by gavage 5 days a week from 13 weeks, by 27 weeks of age): 46.7%
Lower blood glucose levels, difference to control ([1]; at 27 weeks of age): about 2 fold
Cytotoxicity to the tested strains [2]: non-cytotoxic
Mutagenicity in the Ames test [2]: non-mutagenic
Fold increase ([3]; absence of S9, 0.0312 μg/plate): 1
Mean number of revertants ([3]; absence of S9, 0.0312 μg/plate): 41
Fold increase ([3]; absence of S9, 0.1 μg/plate): 1
Mean number of revertants ([3]; absence of S9, 0.1 μg/plate): 39
Fold increase ([3]; absence of S9, 0.316 μg/plate): 1
Mean number of revertants ([3]; absence of S9, 0.316 μg/plate): 41
Fold increase ([3]; absence of S9, 1 μg/plate): 1
Mean number of revertants ([3]; absence of S9, 1 μg/plate): 39
Fold increase ([3]; absence of S9, 3.16 μg/plate): 1
Mean number of revertants ([3]; absence of S9, 3.16 μg/plate): 42
Fold increase ([3]; absence of S9, 10 μg/plate): 1
Mean number of revertants ([3]; absence of S9, 10 μg/plate): 40
Fold increase ([3]; absence of S9, 31.6 μg/plate): 1
Mean number of revertants ([3]; absence of S9, 31.6 μg/plate): 42
Fold increase ([3]; absence of S9, 100 μg/plate): 1
Mean number of revertants ([3]; absence of S9, 100 μg/plate): 42
Fold increase ([3]; absence of S9, 316 μg/plate): 1
Mean number of revertants ([3]; absence of S9, 316 μg/plate): 40
Fold increase ([3]; absence of S9, 1000 μg/plate): 1
Mean number of revertants ([3]; absence of S9, 1000 μg/plate): 42
Fold increase [3, 5]: 1
Mean number of revertants [3, 5]: 39
Fold increase ([3]; presence of S9, 0.1 μg/plate): 1
Mean number of revertants ([3]; presence of S9, 0.1 μg/plate): 42
Fold increase ([3]; presence of S9, 0.316 μg/plate): 1
Mean number of revertants ([3]; presence of S9, 0.316 μg/plate): 40
Fold increase ([3]; presence of S9, 1 μg/plate): 1
Mean number of revertants ([3]; presence of S9, 1 μg/plate): 38
Fold increase ([3]; presence of S9, 3.16 μg/plate): 1
Mean number of revertants ([3]; presence of S9, 3.16 μg/plate): 38
Fold increase ([3]; presence of S9, 10 μg/plate): 1
Mean number of revertants ([3]; presence of S9, 10 μg/plate): 41
Fold increase ([3]; presence of S9, 31.6 μg/plate): 1
Mean number of revertants ([3]; presence of S9, 31.6 μg/plate): 41
Fold increase ([3]; presence of S9, 100 μg/plate): 1
Mean number of revertants ([3]; presence of S9, 100 μg/plate): 39
Fold increase ([3]; presence of S9, 316 μg/plate): 1
Mean number of revertants ([3]; presence of S9, 316 μg/plate): 40
Fold increase ([3]; presence of S9, 1000 μg/plate): 1
Mean number of revertants ([3]; presence of S9, 1000 μg/plate): 40
Fold increase [4, 6]: 1
Mean number of revertants [4, 6]: 3
Fold increase [4, 7]: 1
Mean number of revertants [4, 7]: 3
Fold increase [4, 8]: 1
Mean number of revertants [4, 8]: 4
Fold increase [4, 9]: 1
Mean number of revertants [4, 9]: 3
Fold increase [4, 10]: 1
Mean number of revertants [4, 10]: 3
Fold increase [4, 11]: 1
Mean number of revertants [4, 11]: 3
Fold increase [4, 12]: 1
Mean number of revertants [4, 12]: 4
Fold increase [4, 13]: 1
Mean number of revertants [4, 13]: 3
Fold increase [4, 14]: 1
Mean number of revertants [4, 14]: 3
Fold increase [4, 15]: 1
Mean number of revertants [4, 15]: 3
Fold increase [4, 16]: 1
Mean number of revertants [4, 16]: 4
Fold increase [4, 17]: 1
Mean number of revertants [4, 17]: 3
Fold increase [4, 18]: 1
Mean number of revertants [4, 18]: 3
Fold increase [4, 19]: 1
Mean number of revertants [4, 19]: 3
Fold increase [4, 20]: 1
Mean number of revertants [4, 20]: 3
Fold increase [4, 21]: 1
Mean number of revertants [4, 21]: 4
Fold increase [4, 22]: 1
Mean number of revertants [4, 22]: 3
Fold increase [4, 23]: 1
Mean number of revertants [4, 23]: 3
Fold increase [4, 24]: 1
Mean number of revertants [4, 24]: 4
Fold increase [4, 25]: 1
Mean number of revertants [4, 25]: 4
